In PubChem BioAssay AID248 (DTP/NCI, 2004):
“And” between values parts separate entries of the source, which are not always exact repeats. Equal values may be shown once. Toxic doses and inconclusive results are not listed.

Tested on: L1210 leukemia ip in BDF1 mice, survival T/C
Assay: NCI In Vivo Anticancer Drug Screen. Data for tumor model L1210 Leukemia (intraperitoneal) in B6D2F1 (BDF1) mice
Settings: endpoint: mean survival time, higher = longer survival
Outline: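 Mice bearing the transplanted tumor received compound or vehicle. Survival of the treated group was divided by that of the vehicle-treated control group to give the ratio.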

[1] = dose: 100.0 mg/kg/injection, schedule: Q04DX002 (ip), vehicle: Klucel (hydroxypropylcellulose) (HPC)
[2] = dose: 200.0 mg/kg/injection, schedule: Q04DX002 (ip), vehicle: Klucel (hydroxypropylcellulose) (HPC)
[3] = dose: 400.0 mg/kg/injection, schedule: Q04DX002 (ip), vehicle: Klucel (hydroxypropylcellulose) (HPC)
[4] = dose: 100.0 mg/kg/injection, schedule: Q04DX003 (ip), vehicle: Klucel (hydroxypropylcellulose) (HPC)
[5] = dose: 200.0 mg/kg/injection, schedule: Q04DX003 (ip), vehicle: Klucel (hydroxypropylcellulose) (HPC)
[6] = dose: 400.0 mg/kg/injection, schedule: Q04DX003 (ip), vehicle: Klucel (hydroxypropylcellulose) (HPC)
[7] = dose: 100.0 mg/kg/injection, schedule: Q01DX001 (ip), vehicle: carboxymethylcellulose (CMC)
[8] = dose: 200.0 mg/kg/injection, schedule: Q01DX001 (ip), vehicle: carboxymethylcellulose (CMC)
[9] = dose: 400.0 mg/kg/injection, schedule: Q01DX001 (ip), vehicle: carboxymethylcellulose (CMC)
[10] = dose: 100.0 mg/kg/injection, schedule: Q04DX003 (ip), vehicle: saline with Tween-80
[11] = dose: 200.0 mg/kg/injection, schedule: Q04DX003 (ip), vehicle: saline with Tween-80
[12] = dose: 400.0 mg/kg/injection, schedule: Q04DX003 (ip), vehicle: saline with Tween-80
[13] = dose: 100.0 mg/kg/injection, schedule: Q01DX009 (ip), vehicle: Klucel (hydroxypropylcellulose) (HPC)
[14] = dose: 200.0 mg/kg/injection, schedule: Q01DX009 (ip), vehicle: Klucel (hydroxypropylcellulose) (HPC)
[15] = dose: 400.0 mg/kg/injection, schedule: Q01DX009 (ip), vehicle: Klucel (hydroxypropylcellulose) (HPC)
[16] = dose: 75.0 mg/kg/injection, schedule: Q01DX001 (ip), vehicle: carboxymethylcellulose (CMC)
[17] = dose: 100.0 mg/kg/injection, schedule: Q04DX003 (ip), vehicle: saline
[18] = dose: 200.0 mg/kg/injection, schedule: Q04DX003 (ip), vehicle: saline
[19] = dose: 400.0 mg/kg/injection, schedule: Q04DX003 (ip), vehicle: saline

With `NC(=O)NC(=O)NCc1ccccc1` the T/C [1] was 98 % of control, the T/C [2] was 94 % of control and the T/C [3] was 94 % of control.
In the case of `[C](#Cc1ccccc1)[Hg][C]#Cc1ccccc1`, the T/C [4] was 103 % of control, the T/C [5] was 94 % of control and the T/C [6] was 96 % of control.
For `O=C(O)C1CC=CCC1C(=O)Nc1cccc(O)c1` (stereo unspecified), the T/C [1] was 99 % of control, the T/C [2] was 105 % of control and the T/C [3] was 99 % of control.
With `C/C(=C\Br)CBr` the T/C (dose: 100.0 mg/kg/injection, schedule: Q01DX009 (ip), vehicle: acetone) was 97 % of control.
`COc1ccc(Cc2nc(-c3ccc(N=Cc4ccc(N(CCCl)CCCl)cc4)cc3)cs2)cc1` was tested, and the T/C (dose: 50.0 mg/kg/injection, schedule: Q01DX001 (ip), vehicle: carboxymethylcellulose (CMC)) was 88 % of control, the T/C [7] was 92 % of control and the T/C [8] was 97 % of control. For the same compound, the T/C [9] was 94 % of control.
With `O=C(OC1CCCC2CCCC21)c1ccc([N+](=O)[O-])cc1` (stereo unspecified) the T/C [7] was 93 % of control, the T/C [8] was 95 % of control and the T/C [9] was 98 % of control.
In the case of `O=C1/C(=N/O)Cc2ccccc21`, the T/C (dose: 3.13 mg/kg/injection, schedule: Q01DX009 (ip), vehicle: saline with Tween-80) was 91 % of control, the T/C (dose: 6.25 mg/kg/injection, schedule: Q01DX009 (ip), vehicle: saline with Tween-80) was 91 % of control and the T/C (dose: 12.5 mg/kg/injection, schedule: Q01DX009 (ip), vehicle: saline with Tween-80) was 94 % of control. The T/C (dose: 25.0 mg/kg/injection, schedule: Q04DX003 (ip), vehicle: saline with Tween-80) was 102 % of control and the T/C (dose: 50.0 mg/kg/injection, schedule: Q04DX003 (ip), vehicle: saline with Tween-80) was 94 % of control.
For `CN(C)c1ccc(-c2nc3ccccn3c2N)cc1`, the T/C (dose: 3.13 mg/kg/injection, schedule: Q01DX009 (ip), vehicle: saline) was 95 % of control, the T/C (dose: 6.25 mg/kg/injection, schedule: Q01DX009 (ip), vehicle: saline) was 92 % of control and 101 % of control and the T/C (dose: 12.5 mg/kg/injection, schedule: Q01DX009 (ip), vehicle: saline) was 100 % of control and 114 % of control.
For `C[C@]12CC[C@H](OC(=O)Cc3ccc(N(CCCl)CCCl)cc3)CC1=CC[C@@H]1[C@@H]2CC[C@]2(C)C(=O)CC[C@@H]12`, the T/C [10] was 88 % of control, the T/C [11] was 88 % of control and the T/C [12] was 88 % of control.
For `Cc1cc(=O)[nH]c2ccc(-c3ccc4[nH]c(=O)cc(C)c4c3)cc12`, the T/C [13] was 101 % of control, the T/C [4] was 102 % of control and the T/C [14] was 95 % of control. The T/C [5] was 100 % of control, the T/C [15] was 95 % of control and the T/C [6] was 100 % of control.
In the case of `O=c1c(O)c(O)c1=O`, the T/C [16] was 89 % of control and the T/C (dose: 150.0 mg/kg/injection, schedule: Q01DX001 (ip), vehicle: carboxymethylcellulose (CMC)) was 98 % of control.
With `CN(/N=N/N(C)c1ccccc1)c1ccccc1` the T/C (dose: 6.3 mg/kg/injection, schedule: Q01DX Z (sc), vehicle: carboxymethylcellulose (CMC)) was 102 % of control, the T/C (dose: 12.5 mg/kg/injection, schedule: Q01DX Z (sc), vehicle: carboxymethylcellulose (CMC)) was 113 % of control and the T/C (dose: 25.0 mg/kg/injection, schedule: Q01DX Z (sc), vehicle: carboxymethylcellulose (CMC)) was 105 % of control and 106 % of control. For the same compound, the T/C (dose: 50.0 mg/kg/injection, schedule: Q01DX Z (sc), vehicle: carboxymethylcellulose (CMC)) was 102 % of control, the T/C [7] was 102 % of control and the T/C (dose: 100.0 mg/kg/injection, schedule: Q01DX Z (sc), vehicle: carboxymethylcellulose (CMC)) was 104 % of control. The T/C (dose: 150.0 mg/kg/injection, schedule: Q01DX Z (sc), vehicle: carboxymethylcellulose (CMC)) was 91 % of control, the T/C [8] was 102 % of control and the T/C (dose: 300.0 mg/kg/injection, schedule: Q01DX Z (sc), vehicle: carboxymethylcellulose (CMC)) was 100 % of control. For the same compound, the T/C [9] was 98 % of control.
For `COc1cc([N+](=O)[O-])c(C)cc1NC(=O)c1ccc(OC)c(OC)c1`, the T/C (dose: 50.0 mg/kg/injection, schedule: Q01DX009 (ip), vehicle: saline) was 97 % of control, the T/C (dose: 100.0 mg/kg/injection, schedule: Q01DX009 (ip), vehicle: saline) was 96 % of control and the T/C [17] was 89 % of control. The T/C (dose: 200.0 mg/kg/injection, schedule: Q01DX009 (ip), vehicle: saline) was 96 % of control, the T/C [18] was 93 % of control and the T/C (dose: 400.0 mg/kg/injection, schedule: Q01DX009 (ip), vehicle: saline) was 97 % of control. The T/C [19] was 91 % of control.
With `CCOC(=O)C1(NC(=O)N(CCCl)N=O)CCCC1` the T/C (dose: 16.0 mg/kg/injection, schedule: Q01DX001 (ip), vehicle: other) was 105 % of control, the T/C (dose: 31.0 mg/kg/injection, schedule: Q01DX001 (ip), vehicle: other) was 110 % of control and the T/C (dose: 108.0 mg/kg/injection, schedule: Q01DX001 (ip), vehicle: other) was 178 % of control. For the same compound, the T/C (dose: 110.0 mg/kg/injection, schedule: Q01DX001 (ip), vehicle: other) was 185 % of control, the T/C (dose: 125.0 mg/kg/injection, schedule: Q01DX001 (ip), vehicle: other) was 217 % of control and the T/C (dose: 165.0 mg/kg/injection, schedule: Q01DX001 (ip), vehicle: other) was 236 % of control. The T/C (dose: 168.0 mg/kg/injection, schedule: Q01DX001 (ip), vehicle: other) was 262 % of control, the T/C (dose: 247.0 mg/kg/injection, schedule: Q01DX001 (ip), vehicle: other) was 272 % of control and the T/C (dose: 250.0 mg/kg/injection, schedule: Q01DX001 (ip), vehicle: other) was 278 % of control and 314 % of control. For the same compound, the T/C (dose: 370.0 mg/kg/injection, schedule: Q01DX001 (ip), vehicle: other) was 250 % of control, the T/C (dose: 375.0 mg/kg/injection, schedule: Q01DX001 (ip), vehicle: other) was 115 % of control and the T/C (dose: 555.0 mg/kg/injection, schedule: Q01DX001 (ip), vehicle: other) was 94 % of control.
For `O=C(OC(C(=O)O)C(OC(=O)c1ccccc1)C(=O)O)c1ccccc1` (stereo unspecified) (tested in a mixture with another compound), the T/C (dose: 15.0 mg/kg/injection, schedule: Q01DX001 (ip), vehicle: carboxymethylcellulose (CMC)) was 102 % of control, the T/C (dose: 100.0 mg/kg/injection, schedule: Q01DX001 (ip), vehicle: other) was 109 % of control and the T/C (dose: 200.0 mg/kg/injection, schedule: Q01DX001 (ip), vehicle: other) was 102 % of control. For the same compound, the T/C (dose: 400.0 mg/kg/injection, schedule: Q01DX001 (ip), vehicle: other) was 109 % of control.
With `CC1(C)C2CCC1(C)C(N1C(c3ccccc3)C1c1ccccc1)C2` (stereo unspecified) the T/C [13] was 90 % of control, the T/C [14] was 88 % of control and the T/C [15] was 90 % of control.
For `CCn1nnc2c(N(C)C)nc(N)nc21`, the T/C (dose: 50.0 mg/kg/injection, schedule: Q01DX009 (ip), vehicle: Klucel (hydroxypropylcellulose) (HPC)) was 93 % of control, the T/C [13] was 95 % of control and the T/C [4] was 93 % of control. For the same compound, the T/C [5] was 92 % of control.
`CCCCCCCCCCCCCCCCOB(OCCCCCCCCCCCCCCCC)OCCCCCCCCCCCCCCCC` was tested, and the T/C [4] was 91 % of control, the T/C [5] was 96 % of control and the T/C [6] was 94 % of control.
With `Cc1cccc2c1C1c3ccccc3C(=O)CC1CC2=O` (stereo unspecified) the T/C [4] was 98 % of control, the T/C [5] was 97 % of control and the T/C [6] was 93 % of control.
For `Cc1cc(=O)c2cc(Cc3ccc(N)cc3)ccc2[nH]1`, the T/C (dose: 100.0 mg/kg/injection, schedule: Q01DX001 (ip), vehicle: saline) was 101 % of control and the T/C (dose: 200.0 mg/kg/injection, schedule: Q01DX001 (ip), vehicle: saline) was 108 % of control.
In the case of `Nc1ccn(C2OC(COP(=O)(O)Oc3ccccc3)C(O)C2O)c(=O)n1` (stereo unspecified), the T/C (dose: 75.0 mg/kg/injection, schedule: Q01DX001 (ip), vehicle: saline) was 109 % of control and the T/C (dose: 150.0 mg/kg/injection, schedule: Q01DX001 (ip), vehicle: saline) was 113 % of control.
In the case of `Cc1cc(C)c(C)c(OC(=O)Nc2cc(Cl)ccc2C)c1`, the T/C [13] was 94 % of control, the T/C [14] was 94 % of control and the T/C [15] was 95 % of control.
For `CCOC(=O)CCC(NC(=O)c1cc([N+](=O)[O-])cc([N+](=O)[O-])c1)C(=O)OCC` (stereo unspecified), the T/C [17] was 100 % of control, the T/C [18] was 97 % of control and the T/C [19] was 97 % of control.
`COC(C)c1nnnn1C` (stereo unspecified) was tested, and the T/C [10] was 97 % of control, the T/C [11] was 98 % of control and the T/C [12] was 101 % of control.
`CCOC(=O)c1ccc(NC(=O)N(C)N=O)cc1` was tested, and the T/C [16] was 121 % of control.
